Test results reported in ChEMBL document CHEMBL1201862, “PubChem BioAssay data set” (2004).
Each block holds one molecule with its values, some of them ahead of it. Calls of active or inactive are those of the source.

Key:
[1] = off-target signal loss in HeLa-CEM21 co-culture – HeLa F-luc CTL cells, cherry-picked, counter-screen for HIV-1 Env fusion inhibitor project, dose response (AID 652040); assay type: functional, cell-based;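 note: potency for signal decrease marking cytotoxic or nonspecific inhibition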
[2] = inhibitors of HIV Env-driven cell fusion, dose response, cherry-pick (AID 652057); assay type: functional, cell-based
[3] = ZM109 Env clade C HIV-1 fusion inhibitors, dose response, HeLa effector, CEM target cells, luciferase, cherry-pick (AID 652058); assay type: functional, cell-based
[4] = inhibitors of clade B AD8 Env fusion, dose response, cell-based, cherry-pick (AID 652062); assay type: functional;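 note: luciferase signal from cell-cell fusion driven by HIV-1 clade B AD8 Env; potency is for inhibitors of fusion seen as a drop in luminescence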
cells = assay type: functional, cell-based
[5] = target: T1, Nuclear receptor subfamily 0 group B member 1 (Homo sapiens, UniProt P51843); assay type: functional, cell-based;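 note: HEK293T cells transfected with SF-1 and DAX-1 plus StAR promoter luciferase reporter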
T1 sequence (P51843 whole entry): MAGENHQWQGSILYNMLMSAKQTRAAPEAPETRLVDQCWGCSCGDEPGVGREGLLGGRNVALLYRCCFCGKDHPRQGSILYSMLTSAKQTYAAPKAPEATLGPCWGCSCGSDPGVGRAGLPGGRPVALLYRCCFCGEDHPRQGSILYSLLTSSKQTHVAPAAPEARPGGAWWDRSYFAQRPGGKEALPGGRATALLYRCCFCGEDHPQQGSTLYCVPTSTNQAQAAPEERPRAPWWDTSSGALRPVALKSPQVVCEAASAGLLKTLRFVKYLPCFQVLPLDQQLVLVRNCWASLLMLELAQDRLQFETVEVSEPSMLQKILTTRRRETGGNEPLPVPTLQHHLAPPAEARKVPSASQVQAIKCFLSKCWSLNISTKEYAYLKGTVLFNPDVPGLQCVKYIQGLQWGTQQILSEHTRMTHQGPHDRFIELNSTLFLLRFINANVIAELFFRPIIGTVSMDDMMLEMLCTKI

Cytochrome P450 1A2 = target: T2, Cytochrome P450 1A2 (Homo sapiens, UniProt P05177);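 note: PubChem cytochrome P450 panel assay, CYP1A2 panel member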
T2 sequence (P05177 whole entry): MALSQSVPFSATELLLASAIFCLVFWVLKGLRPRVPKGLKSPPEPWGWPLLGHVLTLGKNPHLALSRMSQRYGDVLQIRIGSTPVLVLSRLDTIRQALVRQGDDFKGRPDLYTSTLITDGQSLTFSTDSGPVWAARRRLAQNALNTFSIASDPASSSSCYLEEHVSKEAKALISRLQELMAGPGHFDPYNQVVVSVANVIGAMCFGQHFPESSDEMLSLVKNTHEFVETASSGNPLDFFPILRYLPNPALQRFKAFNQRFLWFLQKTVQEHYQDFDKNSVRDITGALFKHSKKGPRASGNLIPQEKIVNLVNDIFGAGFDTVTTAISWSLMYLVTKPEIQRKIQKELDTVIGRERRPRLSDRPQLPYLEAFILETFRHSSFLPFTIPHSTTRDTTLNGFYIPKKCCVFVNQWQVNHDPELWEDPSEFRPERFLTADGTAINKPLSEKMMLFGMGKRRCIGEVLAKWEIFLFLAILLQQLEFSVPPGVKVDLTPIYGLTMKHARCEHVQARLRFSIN

Cytochrome P450 2C9 = Cytochrome P450 2C9 (Homo sapiens, UniProt P11712)
Sequence of Cytochrome P450 2C9 (P11712 whole entry): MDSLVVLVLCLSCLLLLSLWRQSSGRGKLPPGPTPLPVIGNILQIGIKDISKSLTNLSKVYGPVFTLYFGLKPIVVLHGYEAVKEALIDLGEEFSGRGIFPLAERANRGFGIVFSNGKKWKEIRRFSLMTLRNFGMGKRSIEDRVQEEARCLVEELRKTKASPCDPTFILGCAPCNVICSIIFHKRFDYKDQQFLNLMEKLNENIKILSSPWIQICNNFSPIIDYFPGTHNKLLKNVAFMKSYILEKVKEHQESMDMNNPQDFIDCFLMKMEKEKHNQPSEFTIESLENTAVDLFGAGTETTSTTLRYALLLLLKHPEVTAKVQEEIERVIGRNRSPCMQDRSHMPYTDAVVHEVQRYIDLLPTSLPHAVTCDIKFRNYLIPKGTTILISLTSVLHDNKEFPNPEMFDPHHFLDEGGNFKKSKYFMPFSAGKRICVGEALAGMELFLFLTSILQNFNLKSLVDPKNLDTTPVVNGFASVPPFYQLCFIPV

Cytochrome P450 2D6 = Cytochrome P450 2D6 (Homo sapiens, UniProt P10635);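 note: CYP2D6 member of a cytochrome P450 panel assay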
Sequence of Cytochrome P450 2D6 (P10635 whole entry): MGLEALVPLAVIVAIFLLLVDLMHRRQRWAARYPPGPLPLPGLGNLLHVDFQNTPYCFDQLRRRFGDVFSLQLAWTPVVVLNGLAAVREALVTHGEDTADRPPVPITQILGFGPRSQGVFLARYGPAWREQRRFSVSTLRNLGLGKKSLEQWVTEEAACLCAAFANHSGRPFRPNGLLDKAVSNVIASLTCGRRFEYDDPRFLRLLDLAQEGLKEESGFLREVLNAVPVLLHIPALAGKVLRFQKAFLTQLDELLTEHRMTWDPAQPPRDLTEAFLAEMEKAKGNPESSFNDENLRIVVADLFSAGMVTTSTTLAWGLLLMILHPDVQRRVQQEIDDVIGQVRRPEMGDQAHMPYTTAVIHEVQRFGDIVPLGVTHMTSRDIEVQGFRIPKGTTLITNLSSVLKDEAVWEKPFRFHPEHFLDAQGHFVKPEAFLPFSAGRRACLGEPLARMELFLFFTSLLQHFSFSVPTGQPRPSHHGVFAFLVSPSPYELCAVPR

[6] = target: T3, Short transient receptor potential channel 4 (Mus musculus, UniProt Q9QUQ5); test: mouse TRPC4 channel activators, dose response, cell-based, HEK293 TRPC4/mu-opioid, Fluo-4 calcium (AID 434937); assay type: functional
T3 sequence (Q9QUQ5 whole entry): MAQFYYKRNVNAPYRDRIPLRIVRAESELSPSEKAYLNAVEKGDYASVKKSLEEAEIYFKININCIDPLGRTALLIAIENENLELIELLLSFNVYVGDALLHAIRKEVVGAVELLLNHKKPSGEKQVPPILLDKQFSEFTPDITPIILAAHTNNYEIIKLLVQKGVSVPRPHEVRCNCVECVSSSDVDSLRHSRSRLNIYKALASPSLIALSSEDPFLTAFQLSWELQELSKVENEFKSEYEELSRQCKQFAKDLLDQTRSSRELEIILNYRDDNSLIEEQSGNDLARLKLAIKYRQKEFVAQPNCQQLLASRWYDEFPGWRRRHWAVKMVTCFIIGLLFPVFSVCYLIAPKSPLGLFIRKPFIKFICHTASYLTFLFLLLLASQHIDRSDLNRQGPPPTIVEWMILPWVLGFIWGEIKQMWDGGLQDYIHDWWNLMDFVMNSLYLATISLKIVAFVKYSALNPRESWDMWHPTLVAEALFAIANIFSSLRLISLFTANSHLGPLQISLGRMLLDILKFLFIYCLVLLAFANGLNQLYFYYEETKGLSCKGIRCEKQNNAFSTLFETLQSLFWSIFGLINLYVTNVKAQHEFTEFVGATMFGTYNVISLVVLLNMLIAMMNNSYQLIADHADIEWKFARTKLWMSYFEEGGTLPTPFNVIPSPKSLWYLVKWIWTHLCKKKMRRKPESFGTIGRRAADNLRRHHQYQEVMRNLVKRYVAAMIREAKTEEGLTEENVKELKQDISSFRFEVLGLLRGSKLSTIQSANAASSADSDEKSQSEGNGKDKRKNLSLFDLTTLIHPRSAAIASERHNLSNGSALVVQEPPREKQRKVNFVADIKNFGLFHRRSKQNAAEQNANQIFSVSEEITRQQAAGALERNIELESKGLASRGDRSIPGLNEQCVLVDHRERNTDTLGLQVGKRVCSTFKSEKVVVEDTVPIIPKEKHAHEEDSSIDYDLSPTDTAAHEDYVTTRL

Cytochrome P450 2C19 = Cytochrome P450 2C19 (Homo sapiens, UniProt P33261); test: Cytochrome panel assay with activity outcomes. Panel member name: p450-cyp2c19 Compounds with AC50 equal or less than 10 uM are considered active; assay type: functional; conditions: read-out: AC50
Sequence of Cytochrome P450 2C19 (P33261 whole entry): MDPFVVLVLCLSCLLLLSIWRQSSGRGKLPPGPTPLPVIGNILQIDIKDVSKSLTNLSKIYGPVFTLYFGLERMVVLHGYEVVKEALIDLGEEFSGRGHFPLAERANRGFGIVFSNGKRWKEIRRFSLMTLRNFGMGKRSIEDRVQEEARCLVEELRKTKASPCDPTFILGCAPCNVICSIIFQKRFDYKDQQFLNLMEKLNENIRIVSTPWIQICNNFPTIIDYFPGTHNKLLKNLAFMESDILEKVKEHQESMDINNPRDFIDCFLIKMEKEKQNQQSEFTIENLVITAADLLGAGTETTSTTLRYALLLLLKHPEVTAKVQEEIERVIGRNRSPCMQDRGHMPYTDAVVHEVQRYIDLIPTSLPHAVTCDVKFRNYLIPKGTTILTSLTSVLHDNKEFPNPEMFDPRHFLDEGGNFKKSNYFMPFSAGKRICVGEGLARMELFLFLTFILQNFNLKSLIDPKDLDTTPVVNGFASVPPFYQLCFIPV

[7] = target: T4, Corticotropin-releasing factor receptor 2/Corticotropin-releasing factor-binding protein (Homo sapiens, UniProt P24387+Q13324); test: activators of CRF receptor 2 with binding protein – uHTS hits, confirmation (AID 602473); assay type: functional; conditions: read-out: EC50_Mean
T4 sequence (Q13324 whole entry): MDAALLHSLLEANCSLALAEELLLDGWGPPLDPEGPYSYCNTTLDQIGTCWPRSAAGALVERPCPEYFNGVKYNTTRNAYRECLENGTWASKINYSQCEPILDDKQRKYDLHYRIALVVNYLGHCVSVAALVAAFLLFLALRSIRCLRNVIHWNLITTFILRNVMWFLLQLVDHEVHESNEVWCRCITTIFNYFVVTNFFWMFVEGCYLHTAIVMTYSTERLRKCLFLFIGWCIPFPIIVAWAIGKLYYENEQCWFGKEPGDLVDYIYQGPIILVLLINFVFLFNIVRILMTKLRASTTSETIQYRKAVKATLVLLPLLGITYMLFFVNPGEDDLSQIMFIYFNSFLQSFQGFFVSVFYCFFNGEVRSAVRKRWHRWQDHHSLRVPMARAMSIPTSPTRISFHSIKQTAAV
T4 sequence (P24387 whole entry): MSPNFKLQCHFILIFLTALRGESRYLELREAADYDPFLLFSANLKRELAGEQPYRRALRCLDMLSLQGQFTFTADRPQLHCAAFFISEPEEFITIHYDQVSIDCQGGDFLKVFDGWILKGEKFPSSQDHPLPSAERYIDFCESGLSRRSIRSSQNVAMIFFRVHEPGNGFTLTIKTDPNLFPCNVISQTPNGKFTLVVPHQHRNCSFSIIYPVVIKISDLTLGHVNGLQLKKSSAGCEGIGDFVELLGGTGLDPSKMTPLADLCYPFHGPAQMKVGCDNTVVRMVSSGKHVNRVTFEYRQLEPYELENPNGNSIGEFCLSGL

[8] = LGR2 antagonists, dose response, cell-based, HEK293, CRE-luciferase reporter, cherry pick, set 2 (AID 743343); assay type: functional;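 note: transfected cells were stimulated with diluted bursicon conditioned medium after compound addition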
[9] = MC4R antagonists, dose response, counter-screen for LGR2 antagonist project, cell-based, plate reader, cherry pick (AID 743444); assay type: functional;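 note: transfected HEK 293 cells stimulated with alpha-MSH peptide; potency of inhibitors of the alpha-MSH evoked signal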
HEK293 = test: inhibitors of LMP1-driven NF-kB reporter, dose response, cell-based, HEK293, luciferase, cherry-pick (AID 588343); assay type: functional; conditions: Homo sapiens
[10] = A549 cell cytotoxicity, dose response, cytotoxicity control, plate reader, cherry-pick, antagonist series (AID 743412); assay type: functional, cell-based
[11] = HepG2 cell cytotoxicity, dose response, cytotoxicity control, plate reader, cherry-pick, antagonist series (AID 743416); assay type: functional, cell-based
H9c2 = test: cells; assay type: functional, cell-based; conditions: Rattus norvegicus, H9c2, Myocardium;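 note: confirmatory concentration-response retest of ultra-high-throughput screening hits for modulation of myocardial damage; cell death induced by hydrogen peroxide oxidative stress; compound pretreatment for 60 min then peroxide exposure for 2 h; potency is for protecting the cells against peroxide damage rather than for killing them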
Cytochrome P450 3A4 = Cytochrome P450 3A4 (Homo sapiens, UniProt P08684);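 note: CYP3A4 tested as one member of a cytochrome P450 panel screen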
Sequence of Cytochrome P450 3A4 (P08684 whole entry): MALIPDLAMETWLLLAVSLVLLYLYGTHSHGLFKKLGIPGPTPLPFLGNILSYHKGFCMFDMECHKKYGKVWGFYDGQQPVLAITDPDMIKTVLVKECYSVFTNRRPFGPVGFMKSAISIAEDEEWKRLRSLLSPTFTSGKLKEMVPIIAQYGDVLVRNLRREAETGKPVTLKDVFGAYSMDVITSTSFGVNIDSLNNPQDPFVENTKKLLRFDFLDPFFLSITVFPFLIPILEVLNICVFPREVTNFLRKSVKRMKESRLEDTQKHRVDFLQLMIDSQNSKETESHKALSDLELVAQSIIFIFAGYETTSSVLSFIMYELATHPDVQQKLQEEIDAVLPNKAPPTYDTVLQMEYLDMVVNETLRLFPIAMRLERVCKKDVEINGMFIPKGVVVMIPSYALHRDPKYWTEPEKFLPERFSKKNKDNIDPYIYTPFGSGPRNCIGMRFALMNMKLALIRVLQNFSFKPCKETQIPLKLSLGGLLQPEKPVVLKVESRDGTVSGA

[12] = intracellular Trypanosoma cruzi inhibitors in host cells – cell-based, plate reader, cherry-pick samples, set 3, dose response (AID 651818); assay type: functional;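 note: compounds incubated with infected cells for about four days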

SMILES: CCOC(=O)c1c(CSc2cccs2)n(C)c2cc(Br)c(O)c(CN(C)C)c12
AC50 [1]: 2.08 µM (active)
AC50 [2]: 1.62 µM (active)
AC50 [3]: 1.23 µM (active)
AC50 [4]: 14.4 µM (active)

SMILES: CCOc1cccc(/C=C/c2ccc3ccccc3n2)c1OC(C)=O
IC50 (cells): > 67.5 µM (inactive)
IC50 [5]: > 67.5 µM (inactive)

AC50 (Cytochrome P450 1A2): 7.08 µM (inconclusive)
AC50 (Cytochrome P450 2C9): inconclusive
SMILES: CC(C)NC(=O)COC(=O)c1cc(O)nc2ccccc12

AC50 (Cytochrome P450 2D6): 25.1 µM (inconclusive)
AC50 (Cytochrome P450 2C9): inconclusive
SMILES: COc1ccc(C(=O)CN2CCN(c3ccc(F)cc3)CC2)cc1OC

EC50 [6]: 2.37 µM (active)
SMILES: O=C(NCc1ccccc1)C1=C[C@@H](C2CCCCC2)C[C@@H](OCc2ccc(CO)cc2)O1

AC50 (Cytochrome P450 1A2): 17.8 µM (inconclusive)
AC50 (Cytochrome P450 2C19): 7.94 µM (inconclusive)
AC50 (Cytochrome P450 2C9): inconclusive
SMILES: CCc1cc(C(=O)NN=C(S)NCC2CCCO2)cs1 (configuration not stated)

EC50 [6]: 2.66 µM (active)
SMILES: CCCc1c(O)nc(SCCN(CCC)CCC)nc1O

EC50 [6]: 1.06 µM (active)
SMILES: CCN1CCN(c2ccc(S(=O)(=O)N3CCCCC3)cc2NC(=O)CC(C)c2ccccc2)CC1 (configuration not stated)

AC50 (Cytochrome P450 2C9): inconclusive
SMILES: CS(=O)(=O)N1CCC2(CC1)CN(c1cccc(-c3ccccc3)c1)C2

EC50 [6]: 5.96 µM (active)
SMILES: COc1ccc(CNCc2cn(-c3cccc(F)c3)nc2-c2ccc(C)o2)cc1

EC50 [6]: 5.31 µM (active)
SMILES: COC(=O)c1ccc(C(S)=NCC2(N(C)C)CCCCC2)cc1

AC50 (Cytochrome P450 2C19): 8.91 µM (inconclusive)
AC50 (Cytochrome P450 2C9): inconclusive
SMILES: Cc1ccc(-c2nc3c(=O)n(C)c4ccccc4c3o2)cc1

EC50 [6]: 2.66 µM (active)
EC50 [7]: 2.77 µM (active)
SMILES: CCOc1ccccc1N(CC(=O)N1CCOCC1)S(=O)(=O)c1ccc(SC)cc1

SMILES: COc1ccc2oc(C(=O)NCCc3ccccc3)c(C)c2c1
AC50 [8]: 5.62 µM (active)
AC50 [9]: 8.65 µM (active)
IC50 (cells): > 67.5 µM (inactive)
AC50 (HEK293): 2.48 µM (active)
AC50 [10]: 8.39 µM (active)
AC50 [11]: 12.7 µM (active)
IC50 [5]: > 67.5 µM (inactive)

SMILES: NC(=O)C1CCN(C(=O)c2cc3c(s2)CCCC3)CC1
IC50 (cells): > 67.6 µM (inactive)
IC50 [5]: > 67.6 µM (inactive)

SMILES: CCN(C[C@H]1N[C@@](C)(C(=O)OC)[C@H]2C(=O)N(Cc3ccccc3)C(=O)[C@@H]12)C(=O)c1ccc(C(C)(C)C)cc1
IC50 (H9c2): > 79 µM (inactive)
AC50 [1]: 10.2 µM (active)
AC50 [2]: 5.34 µM (active)
AC50 [3]: 4.92 µM (active)
AC50 [4]: 16.8 µM (active)

AC50 (Cytochrome P450 2D6): 22.4 µM (inconclusive)
AC50 (Cytochrome P450 3A4): 12.6 µM (inconclusive)
AC50 (Cytochrome P450 2C9): inconclusive
SMILES: Cc1cccc(NC(=O)CCSc2nc(C)cc(C)n2)c1

SMILES: C[C@@H]1CN([C@@H](C)CO)C(=O)c2cccc(NC(=O)c3nc4ccccc4s3)c2O[C@@H]1CN(C)CC1CCCCC1
AC50 [12]: 7.6 µM (active)

SMILES: C[C@@H]1CN([C@H](C)CO)C(=O)c2cccc(NC(=O)NC3CCCCC3)c2O[C@H]1CN(C)CC1CCCCC1
AC50 [12]: 2.5 µM (active)

SMILES: C[C@H](CO)N1C[C@H](C)[C@@H](CN(C)Cc2ccc(Oc3ccccc3)cc2)Oc2c(NC(=O)c3ccc(-c4nccs4)cc3)cccc2C1=O
AC50 [12]: 3.08 µM (active)

SMILES: C[C@H]1CN([C@@H](C)CO)C(=O)Cc2cc(NC(=O)Nc3ccc(F)cc3)ccc2O[C@@H]1CN(C)Cc1ccc(C(F)(F)F)cc1
AC50 [12]: 4.21 µM (active)

SMILES: C[C@@H]1CN([C@H](C)CO)C(=O)c2cccc(NS(=O)(=O)c3ccccc3)c2O[C@@H]1CN(C)Cc1ccc(C(=O)Nc2ccccc2N)cc1
AC50 [12]: 3.53 µM (active)

SMILES: C[C@@H]1CCCCO[C@H](CN(C)C(=O)Nc2ccc(F)cc2)[C@@H](C)CN([C@H](C)CO)C(=O)c2cc(NC(=O)Nc3ccc(F)cc3)ccc2O1
AC50 [12]: 5.89 µM (active)

SMILES: C[C@@H]1CN([C@@H](C)CO)S(=O)(=O)c2ccc(-c3cccc(F)c3)cc2O[C@@H]1CN(C)S(=O)(=O)c1ccccc1
AC50 [2]: 0.597 µM (active)
AC50 [3]: 0.965 µM (active)
AC50 [4]: 6.62 µM (active)

SMILES: C(=N\Nc1ccc2ccccc2n1)/c1ccc2c(c1)OCO2
IC50 (cells): > 67.6 µM (inactive)
AC50 (HEK293): 2.42 µM (active)
IC50 [5]: > 0.278 µM (active)
